The values that follow come from ChEMBL document CHEMBL1138383, “2-Arylidenedihydroindole-3-ones: design, synthesis, and biological activity on bladder carcinoma cell lines” (2007).

Assay [1] in a line: Effect on viability of DAG1 cells with FGFR3 S249C mutation at 10 uM after 72 hrs. The assay is classed as functional, Homo sapiens.
Assay [2] has as its system J82. As to the kind of experiment: Effect on viability of J82 cells with FGFR3 K650E mutation at 10 uM after 72 hrs. In kind it is functional, Homo sapiens.
The test system of assay [3] is RT-112. As to the kind of experiment: Effect on viability of RT112 cells overexpressing wild-type FGFR3 at 10 uM after 72 hrs. In kind it is functional, Homo sapiens.
Assay [4] has as its system J82. As to the kind of experiment: Induction of apoptosis in J82 cells with FGFR3 K650E mutation at 10 uM after 48 hrs by flow cytometry. The assay is classed as functional, Homo sapiens. (In general: Flow cytometry measures light scatter and fluorescence of single cells or particles in a stream.)
Assay [5] has as its system RT-112. Put plainly: Decrease in p-Pyk2 antigen expression level in RT112 cells overexpressing wild-type FGFR3 at 10 uM after 6 hrs by flow cytometry relative to control. In kind it is functional, Homo sapiens.
Assay [6] is described as follows: Induction of apoptosis in DAG1 cells with FGFR3 S249C mutation at 10 uM after 48 hrs by flow cytometry. In kind it is functional, Homo sapiens.
In assay [7] the test system is RT-112. As to the kind of experiment: Induction of apoptosis in RT112 cells overexpressing wild-type FGFR3 at 10 uM after 48 hrs by flow cytometry. The assay is classed as functional, Homo sapiens.
The nature of assay [8]: Decrease in p-Pyk2 antigen expression level in DAG1 cells with FGFR3 S249C mutation at 10 uM after 6 hrs by flow cytometry relative to control. In kind it is functional, cell-based. The settings on record: Homo sapiens.
Assay [9] concerns RT-112. As to the kind of experiment: Decrease in p-Stat5 antigen expression level in RT112 cells overexpressing wild-type FGFR3 at 10 uM after 6 hrs by flow cytometry relative to control. In kind it is functional, Homo sapiens.
Assay [10] is described as follows: Decrease in p-Stat5 antigen expression level in DAG1 cells with FGFR3 S249C mutation at 10 uM after 6 hrs by flow cytometry relative to control. The assay is classed as functional, cell-based. The settings on record: Homo sapiens.

Molecules are shown by their SMILES.

For `COc1cc2c(c(OC)c1)C(=O)/C(=C/c1ncc[nH]1)N2`, the Activity in assay [1] was found to be 90%; with J82 [2] it was 89%; with RT-112 [3], 92%.
For `COc1cc2c(c(OC)c1)C(=O)/C(=C/c1[nH]cnc1C)N2`, in that order: 89%, 90% and 92%.
On to `CCc1ccc(/C=C2\Nc3cc(OC)cc(OC)c3C2=O)cc1`, for which the results for the Activity (in [1]; in the assay with J82 [2]; with RT-112 [3]) were 98%, 99% and 97%, respectively.
With `COc1cc2c(c(OC)c1)C(=O)/C(=C/c1ccc(Cl)cc1)N2`, the values for the Activity (in assay [1]; with J82 [2]; with RT-112 [3]) were 99%, 94% and 93%, respectively.
The matching figures for `COc1cc2c(c(OC)c1)C(=O)/C(=C/c1c(F)cccc1Cl)N2`: 91%, 95% and 93%.
Regarding `COc1cc2c(c(OC)c1)C(=O)/C(=C/c1ccccc1F)N2`, the Activity in [1] came to 58%; in the assay with J82 [4] it was 3%; with RT-112 [5], 1.3; in assay [6] it was 86%; with J82 [2], 97%; with RT-112 [7], 20%. The Activity was 2 in assay [8], 2.5 in the assay on RT-112 [9], 48% with RT-112 [3] and 9.5 in assay [10].
